One experiment has as its target T1, TGF-beta receptor type-1 (Homo sapiens, UniProt P36897).
T1 sequence (P36897 whole entry): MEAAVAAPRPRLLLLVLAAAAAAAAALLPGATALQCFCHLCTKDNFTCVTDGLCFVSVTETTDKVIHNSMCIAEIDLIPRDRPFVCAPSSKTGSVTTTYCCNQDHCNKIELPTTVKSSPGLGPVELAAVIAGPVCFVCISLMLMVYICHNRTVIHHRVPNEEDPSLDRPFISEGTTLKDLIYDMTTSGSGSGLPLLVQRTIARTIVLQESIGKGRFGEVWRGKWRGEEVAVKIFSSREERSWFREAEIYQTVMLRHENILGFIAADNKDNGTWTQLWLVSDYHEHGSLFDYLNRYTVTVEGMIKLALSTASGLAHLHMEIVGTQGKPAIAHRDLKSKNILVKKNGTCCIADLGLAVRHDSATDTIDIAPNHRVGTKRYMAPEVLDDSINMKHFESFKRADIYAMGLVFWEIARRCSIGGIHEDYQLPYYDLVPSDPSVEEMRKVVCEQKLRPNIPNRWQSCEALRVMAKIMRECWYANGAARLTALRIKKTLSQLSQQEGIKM
Nature of the experiment: Inhibition of recombinant human GST-fused ALK5 expressed in baculovirus infected Sf9 cells assessed as incoporation of [33]Pi after 60 mins in presence of [gamma-33P]-ATP by microplate scintillation counter method.

Experiment [1] concerns the target Mitogen-activated protein kinase 14 (Homo sapiens, UniProt Q16539). Nature of the experiment: Inhibition of recombinant human p38alpha expressed in Escherichia coli assessed as incoporation of [33]Pi after 60 mins in presence of [gamma-33P]-ATP by microplate scintillation counter method.
Experiment [2] deals with T2, TGF-beta receptor type-1 (Homo sapiens) (UniProt P36897).
T2 sequence (whole entry): T1 sequence (P36897 whole entry)
The experiment can be described thus: Potency index, ratio of LY-2157299 IC50 to test compound IC50 for recombinant human GST-fused ALK5 expressed in baculovirus infected Sf9 cells assessed as incoporation of [33]Pi after 60 mins in presence of [gamma-33P]-ATP by microplate scintillation counter method.

The target of experiment [3] is T2, TGF-beta receptor type-1 (Homo sapiens). Nature of the experiment: Potency index, ratio of EW-7197 IC50 to test compound IC50 for recombinant human GST-fused ALK5 expressed in baculovirus infected Sf9 cells assessed as incoporation of [33]Pi after 60 mins in presence of [gamma-33P]-ATP by microplate scintillation counter method.
For experiment [4], the system named is U-87MG ATCC. Nature of the experiment: Inhibition of TGF-beta-induced morphological changes in human U-87MG cells at 0.1 to 1 uM after 48 hrs. The experiment is classed as functional, cell-based. The settings on record: dose 0.1-1 µM.
Experiment [5] deals with U-87 MG. The experiment can be described thus: Inhibition of epithelial-mesenchymal transition in human U-87MG cells assessed as reduction in TGF-beta stimulated nuclear translocation of slug at 1 uM pretreated with compound followed by TGFbeta stimulation and measured after 48 hrs by immunofluorescence assay. The experiment is classed as functional, cell-based. The conditions noted are these: U-87MG ATCC.

Experiment [6] relates to U-87 MG. Nature of the experiment: Inhibition of epithelial-mesenchymal transition in human U-87MG cells assessed as reduction in TGF-beta stimulated Slug protein expression after 48 hrs by Western blot anlaysis. The experiment is classed as functional, cell-based. The settings on record: U-87MG ATCC, dose 0.5-1 µM. On the technique in general: A western blot detects proteins with antibodies after separation by electrophoresis.

In experiment [7] the test system is U-87 MG. Nature of the experiment: Inhibition of TGF-beta-induced cell migration in human U-87MG cells at 1 uM incubated for 36 hrs by bright field microscopy based wound healing assay. The experiment is classed as functional. The conditions noted are these: U-87MG ATCC.
Experiment [8] relates to U-87MG ATCC. The experiment can be described thus: Inhibition of TGF-beta-induced cell invasion in human U-87MG cells at 1 uM incubated for 24 hrs by crystal violet staining based matrigel transwell assay. The experiment is classed as functional.
The subject of experiment [9] is U-87MG ATCC. The experiment can be described thus: Reversal of TGF-beta-induced epithelial-mesenchymal transition in human U-87MG cells assessed as reduction in vimentin protein level at 0.1 to 0.5 uM after 48 hrs by Western blotting analysis. The experiment is classed as functional, cell-based. The settings on record: dose 0.1-0.5 µM.
In experiment [10] the test system is U-87MG ATCC. The experiment can be described thus: Reversal of TGF-beta-induced epithelial-mesenchymal transition in human U-87MG cells assessed as downregulation of N-cadherin expression at 1 uM after 48 hrs by immunofluorescence assay. The experiment is classed as functional, cell-based.
Experiment [11] concerns U-87MG ATCC. Nature of the experiment: Reversal of TGF-beta-induced epithelial-mesenchymal transition in human U-87MG cells assessed as reduction in N-cadherin mRNA level at 1 uM after 48 hrs by RT-PCR analysis. The experiment is classed as functional, cell-based.
Experiment [12] deals with U-87MG ATCC. The experiment can be described thus: Reversal of TGF-beta-induced epithelial-mesenchymal transition in human U-87MG cells assessed as reduction in N-cadherin protein level at 0.1 to 0.5 uM after 48 hrs by Western blotting analysis. The experiment is classed as functional, cell-based. The settings on record: dose 0.1-0.5 µM.
Experiment [13] relates to U-87MG ATCC. Nature of the experiment: Reversal of TGF-beta-induced epithelial-mesenchymal transition in human U-87MG cells assessed as reduction in vimentin mRNA level at 1 uM after 48 hrs by RT-PCR analysis. The experiment is classed as functional, cell-based.

This note sets out measurements from ChEMBL document CHEMBL4732251, “Synthesis and evaluation of the epithelial-to- mesenchymal inhibitory activity of indazole-derived imidazoles as dual ALK5/p38α MAP inhibitors” (Eur J Med Chem, 2021).

Activity calls are given as the source filed them. The rule behind the calls is not given here.

What is called IC50 is the concentration that gives 50% inhibition.

Chain of Mitogen-activated protein kinase 14 (Q16539 whole entry): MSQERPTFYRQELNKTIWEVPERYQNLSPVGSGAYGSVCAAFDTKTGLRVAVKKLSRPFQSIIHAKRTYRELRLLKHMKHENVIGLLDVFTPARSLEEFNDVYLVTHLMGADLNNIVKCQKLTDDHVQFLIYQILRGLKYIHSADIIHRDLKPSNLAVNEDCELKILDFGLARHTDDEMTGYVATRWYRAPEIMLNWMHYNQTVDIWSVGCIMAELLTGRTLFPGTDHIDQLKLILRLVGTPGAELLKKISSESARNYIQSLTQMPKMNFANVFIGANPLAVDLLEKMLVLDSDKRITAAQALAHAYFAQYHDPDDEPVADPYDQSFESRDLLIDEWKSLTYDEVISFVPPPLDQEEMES

On to `Cc1cccc(-c2[nH]c(CNc3ccccc3F)nc2-c2ccc3[nH]ncc3c2)n1`, for which the half-maximal inhibitory concentration (IC50) at TGF-beta receptor type-1 was found to be 5 nM; in experiment [1], 20 nM.

Consider `Cc1cccc(NCc2nc(-c3ccc4[nH]ncc4c3)c(-c3cccc(C)n3)[nH]2)c1`, for which the values for the IC50 (at TGF-beta receptor type-1; in experiment [1]) were 8 nM and 32 nM, respectively. In addition, in experiment [2], the Ratio IC50 turned out to be 3.8.

Turning to `Cc1cccc(-c2[nH]c(CNc3ccccc3C)nc2-c2ccc3[nH]ncc3c2)n1`, the IC50 at TGF-beta receptor type-1 was found to be 5 nM; in experiment [1] it was 23 nM.

As to `Cc1cccc(-c2[nH]c(CNc3ccccc3)nc2-c2ccc3[nH]ncc3c2)n1`, the 50% inhibitory concentration (IC50) on TGF-beta receptor type-1 was 4 nM; in experiment [1] it was 13 nM. For the same compound, the Ratio IC50 was 32.3 in experiment [2] and 3.5 in [3].

As to `Cc1cccc(-c2[nH]c(CNc3cccc(F)c3)nc2-c2ccc3[nH]ncc3c2)n1`, the inhibition entry in the experiment on U-87MG ATCC [4], in the experiment on U-87 MG [5], in the experiment with U-87 MG [7] and with U-87MG ATCC [8] was “Active” throughout. The IC50 (at TGF-beta receptor type-1; in experiment [1]) was 4 nM each time. The inhibition result in the experiment on U-87 MG [6] is “Dose-dependent effect”. Further, the outcome in the experiment with U-87MG ATCC [9], in the experiment with U-87MG ATCC [10], in the experiment on U-87MG ATCC [11], in the experiment with U-87MG ATCC [12] and in the experiment on U-87MG ATCC [13] was Active.

Take `Cc1cccc(-c2[nH]c(CNc3ccccc3)nc2-c2ccc3c(cnn3C)c2)n1`: the figures for the IC50 (on TGF-beta receptor type-1; in experiment [1]) were 14 nM and 66 nM, respectively. Also, in [2], the Ratio IC50 was 3.8.

On to `Cc1ccc(NCc2nc(-c3ccc4[nH]ncc4c3)c(-c3cccc(C)n3)[nH]2)cc1`, for which the IC50 on TGF-beta receptor type-1 was 9 nM; in experiment [1], 329 nM.

Take `Cc1cccc(-c2[nH]c(CNc3ccc(F)cc3)nc2-c2ccc3c(cnn3C)c2)n1`: the half-maximal inhibitory concentration (IC50) at TGF-beta receptor type-1 was 16 nM; in experiment [1] it was 112 nM. In addition, in [2], the Ratio IC50 came to 3.8.

Regarding `Cc1cccc(NCc2nc(-c3ccc4c(cnn4C)c3)c(-c3cccc(C)n3)[nH]2)c1`, the concentration for half-maximal inhibition (IC50) came out at 10 nM on TGF-beta receptor type-1 and 23 nM in experiment [1].

As to `Cc1ccc(NCc2nc(-c3ccc4c(cnn4C)c3)c(-c3cccc(C)n3)[nH]2)cc1`, the concentration for half-maximal inhibition (IC50) on TGF-beta receptor type-1 worked out at 34 nM; in experiment [1], 565 nM. In addition, the Ratio IC50 in experiment [2] turned out to be 3.8.

With `Cc1cccc(-c2[nH]c(CNc3ccccc3F)nc2-c2ccc3c(cnn3C)c2)n1`, the IC50 on TGF-beta receptor type-1 is 13 nM; in [1] it was 95 nM.

`Cc1cccc(-c2nn3c(c2-c2ccnc4ccc(C(N)=O)cc24)CCC3)n1`: the inhibition entry in the experiment with U-87MG ATCC [4] is “Active”. In addition, the inhibition result with U-87 MG [6] is “Dose-dependent effect”. Moreover, the outcome with U-87MG ATCC [9] and with U-87MG ATCC [12] was Active.

In the case of `Cc1cccc(-c2[nH]c(CNc3cccc(F)c3)nc2-c2ccc3c(cnn3C)c2)n1`, the half-inhibitory concentration (IC50) at TGF-beta receptor type-1 came out at 11 nM; in experiment [1], 26 nM. In experiment [2], the Ratio IC50 was 3.8.

For `Cc1cccc(-c2[nH]c(CNc3ccc(F)cc3)nc2-c2ccc3[nH]ncc3c2)n1`, the 50% inhibitory concentration (IC50) at TGF-beta receptor type-1 came to 6 nM; in [1], 52 nM. Further, the Ratio IC50 in experiment [2] is 3.8.

As to `Cc1cccc(-c2[nH]c(CNc3ccccc3C)nc2-c2ccc3c(cnn3C)c2)n1`, the IC50 on TGF-beta receptor type-1 was 24 nM; in experiment [1], 71 nM. Also, the Ratio IC50 in [2] came to 3.8.
